Data published in ChEMBL document CHEMBL4004883, “Biologically active perspective synthesis of heteroannulated 8-nitroquinolines with green chemistry approach” (Bioorg Med Chem Lett, 2017).
Values after ≈ are worked out from the molar mass of the structure shown. Active and inactive are the calls of the source. The calls are words filed in the database; no cut-off is given here.

How the values were obtained:
[1] = test system: Staphylococcus aureus; assay: Antibacterial activity against Staphylococcus aureus MTCC 96 at 100 ug incubated for 24 hrs under dark condition by agar well diffusion method; format: functional; conditions: MTCC 96, 24 h, read-out: IZ
[2] = test system: A549; assay: Induction of apoptosis in human A549 cells assessed as chromatin condensation at IC50 by DAPI staining-based fluorescence microscopic method; format: functional, cell-based
[3] = test system: A549; assay: Cytotoxicity against human A549 cells assessed as decrease in cell viability after 48 hrs by MTT assay; format: functional, cell-based; conditions: A549, 48 h
[4] = test system: Pseudomonas aeruginosa; assay: Antibacterial activity against Pseudomonas aeruginosa MTCC 102 incubated for 24 hrs under dark condition by microwell dilution method; format: functional; conditions: MTCC 102, 24 h
[5] = test system: MCF7; assay: Cytotoxicity against human MCF7 cells assessed as decrease in cell viability after 48 hrs by MTT assay; format: functional, cell-based; conditions: MCF7, 48 h
[6] = Antioxidant activity assessed as assessed as ferric ion reducing activity by measuring absorbance at 700 nm at 100 ug/ml after 20 mins by spectrophotometric method; format: functional
[7] = test system: Staphylococcus aureus; assay: Antibacterial activity against Staphylococcus aureus MTCC 96 incubated for 24 hrs under dark condition by microwell dilution method; format: functional; conditions: MTCC 96, 24 h
[8] = test system: A549; assay: Induction of apoptosis in human A549 cells assessed as cell blebbing at IC50 after 48 hrs by acridine orange/ ethidium bromide staining-based fluorescence microscopic method; format: functional
[9] = test system: A549; assay: Induction of apoptosis in human A549 cells assessed as cell shrinkage at IC50 after 48 hrs by acridine orange/ ethidium bromide staining-based fluorescence microscopic method; format: functional
[10] = Antioxidant activity assessed as total antioxidant capacity measured as ascorbic acid equivalents at 60 ug/ml after 90 mins by phosphomolybdenum method; format: functional
[11] = Antioxidant activity assessed as assessed as ferric ion reducing activity by measuring absorbance at 700 nm at 60 ug/ml after 20 mins by spectrophotometric method; format: functional
[12] = Antioxidant activity assessed as DPPH radical scavenging activity after 20 mins by UV/VIS Spectrophotometric method; format: functional
[13] = test system: Escherichia coli; assay: Antibacterial activity against Escherichia coli MTCC 1652 at 100 ug incubated for 24 hrs under dark condition by agar well diffusion method; format: functional; conditions: MTCC 1652, 24 h, read-out: IZ
[14] = test system: Escherichia coli; assay: Antibacterial activity against Escherichia coli MTCC 1652 incubated for 24 hrs under dark condition by microwell dilution method; format: functional; conditions: MTCC 1652, 24 h
[15] = test system: A549; assay: Induction of apoptosis in human A549 cells assessed as nuclear fragmentation at IC50 by DAPI staining-based fluorescence microscopic method; format: functional, cell-based
[16] = test system: MCF7; assay: Induction of apoptosis in human MCF7 cells assessed as chromatin condensation at IC50 by DAPI staining-based fluorescence microscopic method; format: functional, cell-based
[17] = test system: Pseudomonas aeruginosa; assay: Antibacterial activity against Pseudomonas aeruginosa MTCC 102 at 100 ug incubated for 24 hrs under dark condition by agar well diffusion method; format: functional; conditions: MTCC 102, 24 h, read-out: IZ
[18] = test system: MCF7; assay: Induction of apoptosis in human MCF7 cells assessed as cell blebbing at IC50 after 48 hrs by acridine orange/ ethidium bromide staining-based fluorescence microscopic method; format: functional
[19] = test system: MCF7; assay: Induction of apoptosis in human MCF7 cells assessed as cell shrinkage at IC50 after 48 hrs by acridine orange/ ethidium bromide staining-based fluorescence microscopic method; format: functional
[20] = Antioxidant activity assessed as total antioxidant capacity measured as ascorbic acid equivalents at 100 ug/ml after 90 mins by phosphomolybdenum method; format: functional
[21] = Antioxidant activity assessed as total antioxidant capacity measured as ascorbic acid equivalents at 20 ug/ml after 90 mins by phosphomolybdenum method; format: functional
[22] = test system: Bacillus subtilis; assay: Antibacterial activity against Bacillus subtilis MTCC 121 at 100 ug incubated for 24 hrs under dark condition by agar well diffusion method; format: functional; conditions: MTCC 121, 24 h, read-out: IZ
[23] = test system: MCF7; assay: Induction of apoptosis in human MCF7 cells assessed as nuclear fragmentation at IC50 by DAPI staining-based fluorescence microscopic method; format: functional, cell-based
[24] = test system: Bacillus subtilis; assay: Antibacterial activity against Bacillus subtilis MTCC 121 incubated for 24 hrs under dark condition by microwell dilution method; format: functional; conditions: MTCC 121, 24 h
[25] = Antioxidant activity assessed as assessed as ferric ion reducing activity by measuring absorbance at 700 nm at 20 ug/ml after 20 mins by spectrophotometric method; format: functional

Row | MIC [4] [µg/mL] | MIC [7] [µg/mL] | IC50 [12] [µg/mL] | MIC [14] [µg/mL] | MIC [24] [µg/mL] | SMILES | zone of inhibition at 100 µg/disc [1] [mm] | IC50 [3] [µM] | IC50 [5] [µM] | OD [6] | Activity [10] [µgequiv/ml] | OD [11] | zone of inhibition at 100 µg/disc [13] [mm] | zone of inhibition at 100 µg/disc [17] [mm] | Activity [20] [µgequiv/ml] | Activity [21] [µgequiv/ml] | zone of inhibition at 100 µg/disc [22] [mm] | OD [25] | other results
1 | 37 (≈ 105 µM) | 5 (≈ 14.2 µM) | 194.81 (≈ 553 µM) | 17 (≈ 48.2 µM) | 5 (≈ 14.2 µM) | N#CC1=C(N)OC2=C(CNc3c2cccc3[N+](=O)[O-])C1c1cccs1 (centres undefined) | 23 | 15.4 | 14.3 | 0.134 | 5.72 | 0.118 | 22 | 20 | 11.8 | 2.19 | 29 | 0.098 | Activity [2]: Active; Activity [8]: Active; Activity [9]: Active; Activity [15]: Active; Activity [16]: Active; Activity [18]: Active; Activity [19]: Active; Activity [23]: Active
2 | 150 (≈ 369 µM) | 40 (≈ 98.4 µM) | 124.38 (≈ 306 µM) | 80.5 (≈ 198 µM) | 20 (≈ 49.2 µM) | COc1ccc(C2C(C#N)=C(N)OC3=C2CNc2c3cccc2[N+](=O)[O-])cc1OC (centres undefined) | 14 | 50.6 | 56.3 | 0.157 | 9.51 | 0.111 | 12 | 13 | 13.7 | 4.04 | 15 | 0.078 | –
3 | 37 (≈ 87 µM) | 10 (≈ 23.5 µM) | 125.08 (≈ 294 µM) | 25.5 (≈ 60 µM) | 12.5 (≈ 29.4 µM) | N#CC1=C(N)OC2=C(CNc3c2cccc3[N+](=O)[O-])C1c1ccc(Br)cc1 (centres undefined) | 20 | 34.8 | 24.7 | 0.134 | 2.98 | 0.095 | 18 | 20 | 5.67 | 1.5 | 20 | 0.071 | –
4 | 37 (≈ 98.3 µM) | 10 (≈ 26.6 µM) | 65.42 (≈ 174 µM) | 17 (≈ 45.2 µM) | 12.5 (≈ 33.2 µM) | COc1ccc(C2C(C#N)=C(N)OC3=C2CNc2c3cccc2[N+](=O)[O-])cc1 (centres undefined) | 21 | 35.6 | 16.8 | 0.368 | 15.1 | 0.211 | 20 | 21 | 23.2 | 7.55 | 20 | 0.109 | –
5 | 55.5 (≈ 154 µM) | 55 (≈ 153 µM) | 183.1 (≈ 508 µM) | 25.5 (≈ 70.8 µM) | 50 (≈ 139 µM) | Cc1ccc(C2C(C#N)=C(N)OC3=C2CNc2c3cccc2[N+](=O)[O-])cc1 (centres undefined) | 13 | 56.3 | 34.1 | 0.163 | 4.43 | 0.111 | 18 | 15 | 8.15 | 1.82 | 12 | 0.09 | –
6 | 100 (≈ 275 µM) | 55 (≈ 151 µM) | 169.33 (≈ 466 µM) | 97.5 (≈ 268 µM) | 60 (≈ 165 µM) | O=[N+]([O-])c1cc(Cl)cc2c1NCC1C2=NNC1c1ccc(Cl)cc1 (centres undefined) | 13 | 95.1 | 78.5 | 0.091 | 6.27 | 0.083 | 8 | 14 | 11.8 | 3.47 | 10 | 0.072 | –
7 | 55.5 (≈ 134 µM) | 17.5 (≈ 42.1 µM) | 132.65 (≈ 319 µM) | 25.5 (≈ 61.4 µM) | 17.5 (≈ 42.1 µM) | N#CC1=C(N)OC2=C(CNc3c2cc(Cl)cc3[N+](=O)[O-])C1c1ccc(Cl)cc1 (centres undefined) | 15 | 25.5 | 18 | 0.156 | 7.08 | 0.125 | 18 | 16 | 13 | 3.67 | 18 | 0.093 | –
8 | 100 (≈ 213 µM) | 50 (≈ 107 µM) | 151.83 (≈ 324 µM) | 80.5 (≈ 172 µM) | 50 (≈ 107 µM) | COc1ccc(N2N=C3c4cc(Cl)cc([N+](=O)[O-])c4NCC3C2c2ccc(Cl)cc2)cc1 (centres undefined) | 13 | 32 | 25.8 | 0.253 | 4.43 | 0.171 | 12 | 13 | 8.36 | 1.86 | 14 | 0.1 | –
